Assay results as given in EP3366672B9, “BIPHENYL COMPOUND AND APPLICATION THEREOF” (Shenyang Sinochem Agrochemicals R & D Co., Ltd., priority 2015, dated 2017).

Tests used:
Type in all cases: in vivo
[1] = test system: deutonymph of spider mite (Tetranychuscinnabarinus); assay: Greenhouse test against deutonymph of spider mite, spray on bean leaves; conditions: after 72 h
Experimental: Ten healthy female adult spider mites (Tetranychuscinnabarinus) were put into two true leaves of bean plants. The adult spider mites were removed after 24 h and the eggs were to be continued incubating. After ten days, the number of deutonymph were investigated and recorded. The solution of certain concentrations of test compounds was sprayed by using a sprinkler. Three replicates were set for each treatment. Then the deutonymph of spider mites were maintained in standard observation room. After 72 h, the survival mites in each leaf were observed, and mortality of the mites was determined.

[2] = test system: citrus red mite (Panonychuscitri); assay: Field trial against citrus red mite (Jiangxi, China)
Experimental: The trial was carried out in a 2-year-old Shatang orange orchard in Ganzhou city Jiangxi province, trifoliate orange trees were selected as stocks, the intervals between two plants was 1.50 × 2.50 m, the average height was 1.45 m and the crown width was 1.30 m. Two trees were selected in each plot, with random arrangement and 4 replications. Compound 1 (10% SC) was set at three different doses (100 mg/L, 50 mg/L and 25 mg/L), spirodiclofen (29% SC) was set at one dose (50 mg/L), and pyridaben (20% EC) was set at one dose (100 mg/L). MatabiSupergreen 16 Knapsack Sprayer 16 Liter was used to spray evenly with 2L of spraying volume for each plant. The plants were treated once in May at that time, adults, nymphs, eggs of citrus red mite all existed, with adults/eggs = 1/1.2. During the day the plants were treated, and the weather was good with the average temperature at 24°C. The first three days after treatment were all clear days. The number of mites was investigated before treatment and on the 1st, 3rd, 7th, 14th, 22nd and 28th day after treatment respectively. Two trees of each plot were investigated according to the five directions of the tree crown (east, south, west, north and central), 5 leaves in each direction were investigated to calculate the number of living mites, with 50 leaves each plot. The decline rate of mite population and corrected efficacy were calculated according to formulas below: The decline rate of mite population(%) = [(the average number of mite on each leaf; before treatment−the average number of mite on each leaf after treatment)/the; average number of mite on each leaf before treatment] × 100. [formula] Corrected efficacy(%) = [(the decline rate of mite population in treated area−the; decline rate of mite population in untreated area)/(100−the decline rate of mite; population in untreated area)] × 100. [formula]

[3] = test system: egg of spider mite (Tetranychuscinnabarinus); assay: Greenhouse test against egg of spider mite, spray on bean leaf; conditions: eggs, after 5 days
Experimental: Two true leaves of bean plants were taken and one true leaf was removed. Then ten healthy female adult spider mites were put into the true leaf. The adult spider mites were removed after 24 h and the eggs were investigated. The solution of certain concentrations of test compounds was sprayed by using a sprinkler. Three replicates were set for each treatment. The untreated eggs were all incubated after 5 days. The unincubation of treated eggs in leaf was observed, and incubation inhibition rate of the eggs was determined.

Row | SMILES | Mortality (%) ([1]; 0.25mg/L) | Mortality (%) ([1]; 0.5mg/L) | Mortality (%) ([1]; 1mg/L) | Corrected efficacy (%) ([2]; 100 mg/L, The 1st day after treatment) | Corrected efficacy (%) ([2]; 100 mg/L, The 3rd day after treatment) | Corrected efficacy (%) ([2]; 100 mg/L, The 7th day after treatment) | Corrected efficacy (%) ([2]; 100 mg/L, The 14th day after treatment) | Corrected efficacy (%) ([2]; 100 mg/L, The 22nd day after treatment) | Corrected efficacy (%) ([2]; 100 mg/L, The 28th day after treatment) | Incubation inhibition rate (%) ([3]; 1mg/L) | Incubation inhibition rate (%) ([3]; 5mg/L) | Incubation inhibition rate (%) [3] [%] | Corrected efficacy (%) ([2]; 50 mg/L, The 1st day after treatment) | Corrected efficacy (%) ([2]; 50 mg/L, The 3rd day after treatment) | Corrected efficacy (%) ([2]; 50 mg/L, The 7th day after treatment) | Corrected efficacy (%) ([2]; 50 mg/L, The 14th day after treatment) | Corrected efficacy (%) ([2]; 50 mg/L, The 22nd day after treatment) | Corrected efficacy (%) ([2]; 50 mg/L, The 28th day after treatment)
1 | CC(C)(C)c1ccc(CSc2cnn(C(C)(C)C)c(=O)c2Cl)cc1 [pyridaben] | 25 | 60 | 84 | 0 | 65 | 90 | 93 | 92 | 95 | – | – | – | – | – | – | – | – | –
2 | CCC(C)(C)C(=O)OC1=C(c2ccc(Cl)cc2Cl)C(=O)OC12CCCCC2 [spirodiclofen] | – | – | – | – | – | – | – | – | – | 37 | 100 | 13 | 20 | 48 | 63 | 80 | 71 | 70
